The record followed here is patent publication US11427550B2, “5-fluorouracil compounds” (NUCORION PHARMACEUTICALS, INC., priority 2018, dated 2022).

Where two headings read alike, the source gives them in different places.

This series is described as follows: Tissue distribution following oral administration of reference compounds and the disclosed compounds. As to conditions: rat. The format is in vivo, rats. The protocol:
The liver specificity of the disclosed compounds is compared relative to a corresponding active compound in liver and other organs that could be targets of toxicity.
Reference compounds and the cyclic deoxyribonucleotide, acetal, and hemiaminal compounds are administered at 5-50 mg/kg to fasted rats by oral gavage. Plasma concentrations of the metabolites, and parent compounds in circulation and in the hepatic portal vein are determined by HPLC-UV, and the liver, small intestine, and other organ concentrations are measured by LC-MS using the standard chromatography method.

The mark [1] stands for this setting: drug level in the blood 1 hour after oral administration at 5 mg/kg dose in rats (Table 1), read-out: Drugblood.
The mark [2] stands for this setting: drug level in the liver 1 hour after oral administration at 5 mg/kg dose in rats (Table 1), read-out: Drugliver.
The mark [3] stands for this setting: prodrug level in the blood 1 hour after oral administration at 5 mg/kg dose in rats (Table 2), read-out: Drugblood.
Where [4] appears, read: prodrug level in the liver 1 hour after oral administration at 5 mg/kg dose in rats (Table 2), read-out: Drugliver.

For the compound `O=c1[nH]c(=O)n([C@H]2C[C@@H]3OP(=O)(Oc4ccccc4)OC[C@H]3O2)cc1F` (stereo partly drawn) [Compound 122, 5-Fluoro-1-((4aR,6R,7aS)-2-oxido-2-phenoxytetrahydro-4H-furo[3,2-d][1,3,2]dioxaphosphinin-6-yl)pyrimidine-2,4(1H,3H)-dione], the concentration at 1 h is, setting by setting: under setting [1], 301 ng/mL; under setting [2], 1980 ng/g.
`O=c1[nH]c(=O)n([C@H]2C[C@@H]3OP(=O)(OCc4ccccc4F)OC[C@H]3O2)cc1F` (stereo partly drawn) [Compound 139, 1-((4aR,6R,7aS)-2-(2-Fluorobenzyloxy)-2-oxidotetrahydro-4H-furo[3,2-d][1,3,2]dioxaphosphinin-6-yl)-5-fluoropyrimidine-2,4(1H,3H)-dione]: the concentration at 1 h by setting is: under setting [1], 11.3 ng/mL; under setting [2], below 6 ng/g.
Take `O=c1[nH]c(=O)n([C@H]2C[C@@H]3OP(=O)(OCc4ccc(C(F)(F)F)cc4)OC[C@H]3O2)cc1F` (stereo partly drawn) [Compound 156, 5-Fluoro-1-((4aR,6R,7aS)-2-oxido-2-((4-(trifluoromethyl)benzyl)oxy)tetrahydro-4H-furo[3,2-d][1,3,2]dioxaphosphinin-6-yl)pyrimidine-2,4(1H,3H)-dione]: the concentration at 1 h under setting [1] was determined as 3.66 ng/mL and the concentration at 1 h under setting [2] was below 6 ng/g.
`O=c1[nH]c(=O)n([C@H]2C[C@@H]3OP(=O)(OCC4(c5ccccc5)CC4)OC[C@H]3O2)cc1F` (stereo partly drawn) [Compound 217, 5-Fluoro-1-((4aR,6R,7aS)-2-oxido-2-((1-phenylcyclopropyl)methoxy)tetrahydro-4H-furo[3,2-d][1,3,2]dioxaphosphinin-6-yl)pyrimidine-2,4(1H,3H)-dione]: the concentration at 1 h under setting [3] is 21.7 ng/mL and the concentration at 1 h under setting [4] amounted to 255 ng/g.
For `O=c1[nH]c(=O)n([C@H]2C[C@@H]3OP(=O)(OCCCc4ccccc4)OC[C@H]3O2)cc1F` (stereo partly drawn) [Compound 220, 5-Fluoro-1-((4aR,6R,7aS)-2-(3-phenylpropyloxy)-2-oxidotetrahydro-4H-furo[3,2-d][1,3,2]dioxaphosphinin-6-yl)pyrimidine-2,4(1H,3H)-dione], in that order: 122 ng/mL and 944 ng/g.
As to `COc1ccc(C2O[C@@H]3[C@H](O2)[C@@H](C)O[C@H]3n2cc(F)c(=O)[nH]c2=O)cc1` (stereo partly drawn) [Compound 118, 5-Fluoro-1-((3aR,4R,6R,6aR)-2-(4-methoxyphenyl)-6-methyltetrahydrofuro[3,4-d][1,3]dioxol-4-yl)pyrimidine-2,4(1H,3H)-dione], the concentration at 1 h runs as follows: under setting [1], 3680 ng/mL; under setting [2], 1220 ng/g.
For the compound `C[C@H]1O[C@@H](n2cc(F)c(=O)[nH]c2=O)[C@@H]2OC(c3ccc(O)cc3)O[C@@H]21` (stereo partly drawn) [Compound 116, 5-Fluoro-1-((3aR,4R,6R,6aR)-2-(4-hydroxyphenyl)-6-methyltetrahydrofuro[3,4-d][1,3]dioxol-4-yl)pyrimidine-2,4(1H,3H)-dione], the concentration at 1 h was 1350 ng/mL under setting [1] and 978 ng/g under setting [2].
Turning to `CCCCCCCCOP1(=O)OC[C@H]2O[C@@H](n3cc(F)c(=O)[nH]c3=O)C[C@@H]2O1` (stereo partly drawn) [Compound 202, 5-Fluoro-1-((4aR,6R,7aS)-2-(octyloxy)-2-oxidotetrahydro-4H-furo[3,2-d][1,3,2]dioxaphosphinin-6-yl)pyrimidine-2,4(1H,3H)-dione], the concentration at 1 h runs as follows: under setting [3], 158 ng/mL; under setting [4], 2560 ng/g.
The corresponding values for `CCCCCOC(=O)Nc1nc(=O)n([C@@H]2O[C@H](C)[C@@H](O)[C@H]2O)cc1F` [Capecitabine, reference compound] are 88.4 ng/mL and 44.7 ng/g.
As for `O=c1[nH]c(=O)n([C@H]2C[C@@H]3OP(=O)(OCc4ccc(Cl)cc4)OC[C@H]3O2)cc1F` (single isomer, unassigned) [Compound 127], the concentration at 1 h by setting is: under setting [1], 7.81 ng/mL; under setting [2], below 6 ng/g.
`C[C@H](NP(=O)(OC[C@H]1O[C@@H](n2cc(F)c(=O)[nH]c2=O)C[C@@H]1O)Oc1cccc2ccccc12)C(=O)OCc1ccccc1` (stereo partly shown) [NUC-3373, reference compound]: the concentration at 1 h was below 1 ng/mL under setting [3] and below 6 ng/g under setting [4].
The corresponding values for `CCCCCCCOP1(=O)OC[C@H]2O[C@@H](n3cc(F)c(=O)[nH]c3=O)C[C@@H]2O1` (stereo partly drawn) [Compound 201, 5-Fluoro-1-((4aR,6R,7aS)-2-(heptyloxy)-2-oxidotetrahydro-4H-furo[3,2-d][1,3,2]dioxaphosphinin-6-yl)pyrimidine-2,4(1H,3H)-dione] are 109 ng/mL and 1040 ng/g.
The corresponding values for `O=c1[nH]c(=O)n([C@H]2C[C@@H]3OP(=O)(OCc4ccc(F)cc4C4OCCO4)OC[C@H]3O2)cc1F` (stereo partly drawn) [Compound 219, 1-((4aR,6R,7aS)-2-((2-(1,3-Dioxolan-2-yl)-4-fluorobenzyl)oxy)-2-oxidotetrahydro-4H-furo[3,2-d][1,3,2]dioxaphosphinin-6-yl)-5-fluoropyrimidine-2,4(1H,3H)-dione] are 20 ng/mL and 49.9 ng/g.
Consider `CCc1ccc(COP2(=O)OC[C@H]3O[C@@H](n4cc(F)c(=O)[nH]c4=O)C[C@@H]3O2)cc1` (stereo partly drawn) [Compound 147, 1-((4aR,6R,7aS)-2-(4-Ethylbenzyloxy)-2-oxidotetrahydro-4H-furo[3,2-d][1,3,2]dioxaphosphinin-6-yl)-5-fluoropyrimidine-2,4(1H,3H)-dione], for which the concentration at 1 h is below 1 ng/mL under setting [1] and below 6 ng/g under setting [2].
Regarding `CCOCOC1[C@@H](O)[C@H](n2cc(F)c(=O)n(COCC)c2=O)O[C@@H]1C` (stereo in doubt) [Compound 109, 1-((2R,3R,4R,5R)-4-(Ethoxymethoxy)-3-hydroxy-5-methyltetrahydrofuran-2-yl)-3-(ethoxymethyl)-5-fluoropyrimidine-2,4(1H,3H)-dione], the concentration at 1 h worked out at 83.9 ng/mL under setting [1] and 373 ng/g under setting [2].
With `CCCCCCCCCOP1(=O)OC[C@H]2O[C@@H](n3cc(F)c(=O)[nH]c3=O)C[C@@H]2O1` (stereo partly drawn) [Compound 132, 5-Fluoro-1-((4aR,6R,7aS)-2-(nonyloxy)-2-oxidotetrahydro-4H-furo[3,2-d][1,3,2]dioxaphosphinin-6-yl)pyrimidine-2,4(1H,3H)-dione], the concentration at 1 h worked out at 59.9 ng/mL under setting [1] and 1370 ng/g under setting [2].
For the compound `O=c1[nH]c(=O)n([C@H]2C[C@@H]3OP(=O)(OCCCC4CCCC4)OC[C@H]3O2)cc1F` (stereo partly drawn) [Compound 207, 5-Fluoro-1-((4aR,6R,7aS)-2-(3-cyclopentylpropyloxy)-2-oxidotetrahydro-4H-furo[3,2-d][1,3,2]dioxaphosphinin-6-yl)pyrimidine-2,4(1H,3H)-dione], the concentration at 1 h runs as follows: under setting [3], 29.4 ng/mL; under setting [4], 429 ng/g.
